What was measured:
[1] = molecular target: T1, Isoleucyl tRNA synthetase (Homo sapiens, UniProt P41252); assay: Inhibitory activity against isoleucyl tRNA synthetase; assay type: biochemical; details: for IC50: HT1080 cell lysate, [3H]isoleucine, 25° C., 20 minutes, read-out: IRS IC50 (converted)
T1 construct: 10 μg protein (HT1080 cell lysate); endogenous in cells; host or cells: HT1080 cell lysate
T1 sequence (P41252 1-1262): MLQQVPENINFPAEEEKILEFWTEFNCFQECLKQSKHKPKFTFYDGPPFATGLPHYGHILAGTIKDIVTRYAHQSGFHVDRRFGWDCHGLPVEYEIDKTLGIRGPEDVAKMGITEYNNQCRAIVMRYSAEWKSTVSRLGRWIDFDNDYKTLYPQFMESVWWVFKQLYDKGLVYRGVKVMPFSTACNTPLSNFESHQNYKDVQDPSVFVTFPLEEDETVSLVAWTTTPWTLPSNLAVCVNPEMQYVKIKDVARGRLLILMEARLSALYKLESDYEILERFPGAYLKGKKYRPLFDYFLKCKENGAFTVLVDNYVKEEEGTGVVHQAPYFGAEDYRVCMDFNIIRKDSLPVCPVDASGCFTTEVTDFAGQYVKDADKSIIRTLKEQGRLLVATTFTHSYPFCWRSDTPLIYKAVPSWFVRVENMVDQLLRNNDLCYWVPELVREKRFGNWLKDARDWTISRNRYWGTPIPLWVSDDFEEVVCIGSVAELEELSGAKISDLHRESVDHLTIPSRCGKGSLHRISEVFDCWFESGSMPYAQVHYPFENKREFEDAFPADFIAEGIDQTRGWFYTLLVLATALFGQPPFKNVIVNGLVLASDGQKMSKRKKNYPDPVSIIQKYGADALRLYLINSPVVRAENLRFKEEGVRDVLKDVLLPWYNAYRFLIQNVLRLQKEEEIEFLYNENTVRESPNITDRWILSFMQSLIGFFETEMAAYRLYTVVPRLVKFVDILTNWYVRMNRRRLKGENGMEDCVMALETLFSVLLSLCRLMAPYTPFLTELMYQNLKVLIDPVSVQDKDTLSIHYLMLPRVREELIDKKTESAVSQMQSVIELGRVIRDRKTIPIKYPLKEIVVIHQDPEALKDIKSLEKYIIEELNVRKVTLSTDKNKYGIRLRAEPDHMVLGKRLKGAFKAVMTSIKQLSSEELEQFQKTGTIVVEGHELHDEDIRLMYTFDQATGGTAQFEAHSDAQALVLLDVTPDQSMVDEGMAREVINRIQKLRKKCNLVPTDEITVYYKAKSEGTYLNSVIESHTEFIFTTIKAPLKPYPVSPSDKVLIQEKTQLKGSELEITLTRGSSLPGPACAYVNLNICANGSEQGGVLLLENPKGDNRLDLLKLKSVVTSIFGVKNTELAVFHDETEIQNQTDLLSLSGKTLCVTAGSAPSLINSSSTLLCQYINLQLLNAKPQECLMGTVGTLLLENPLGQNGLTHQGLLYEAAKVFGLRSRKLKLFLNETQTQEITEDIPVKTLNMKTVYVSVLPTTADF
Protocol: To a solution for enzymatic reaction [20 mM imidazole, pH 7.5, 75 mM MgCl2, 0.5 mM DTT, 1 U/ml tRNA (E. coli origin, manufactured by Sigma), 3 mM ATP, 1 μM isoleucine, 10 μCi/ml [^3H]isoleucine (manufactured by GE Healthcare), 10 μg protein (HT1080 cell lysate)], each of the agents in Table 5 was added at 1% (v/v) so as to attain a total amount of 100 μl and a reaction was carried out at 25° C. for 20 minutes. One mg/ml BSA solution (400 μl) and 10% TCA solution (500 μl) were then added thereto to terminate the reaction and left to stand at 4° C. overnight. A precipitate obtained by a centrifugal operation was transferred onto GF-C filter (manufactured by Whatman), washed three times with 5% TCA solution, followed by drying the filter. Two milliliters of aquasol-2 (manufactured by PerkinElmer) and the filter were placed in a vial and vigorously stirred, and then the amount of [^3H]isoleucine was measured by a liquid scintillation counter (manufactured by Beckman) to determine a rate of enzyme activity.

osteoclasts = details: background art, Patent Document 1; cited from earlier work
[2] = test system: bone metastasis of tumors; details: background art, Patent Document 1; cited from earlier work

SMILES	IC50 [1] [nM]	apoptosis of osteoclasts (in words) (osteoclasts)	bone metastasis of tumors (in words) [2]	enzyme inhibiting activity against the target molecule IRS (in words) ([1]; as compared with RM-A)
CCCCCC[C@@]1(OC(=O)CCC(=O)O)CC[C@]2(CC[C@H](C)[C@@H](C/C=C(C)/C=C/[C@H](O)[C@@H](C)/C=C/C(=O)O)O2)O[C@H]1/C=C/C(C)=C/C(=O)O [RM-E]	4.06			
CCCC[C@@]1(OC(=O)CCC(=O)O)CC[C@]2(CC[C@H](C)[C@@H](C/C=C(C)/C=C/[C@H](O)[C@@H](C)/C=C/C(=O)O)O2)O[C@H]1/C=C/C(C)=C/C(=O)O [RM-A, Reveromycin A]	9.38	induce apoptosis selectively for osteoclasts at low concentrations	suppress bone metastasis of tumors	
CCCCC1CCC2(CCC(C)C(C/C=C(C)/C=C/C(O)C(C)/C=C/C(=O)O)O2)OC1/C=C/C(C)=C/C(=O)O (stereo not shown) [RM-T]	0.367			higher
CCCC[C@H]1CC[C@]2(CC[C@H](C)[C@@H](C/C=C(C)/C=C/[C@H](O)[C@@H](C)/C=C/C(=O)OCC)O2)O[C@H]1/C=C/C(C)=C/C(=O)O [RM-T ethyl-ester]	349			
